# Measurements: ChEMBL document CHEMBL1201862, “PubChem BioAssay data set” (2004)
# Calls of active or inactive are those of the source.
# Legend:
# [1] = molecular target: G-protein coupled receptor 55 (Homo sapiens, UniProt Q9Y2T6); experiment: SAR analysis of selective Agonists of GPR55 using an Image-Based Assay - Set 2. [Related pubchem assays (depositor defined):AID1961, AID1965]; type: functional
# [2] = molecular target: T1, Cannabinoid receptor 2 (Homo sapiens, UniProt P34972); experiment: SAR analysis of agonists of the Cannabinoid Receptor 2 using an Image-Based Assay - Set 2. [Related pubchem assays (depositor defined):AID1961, AID1965]; type: functional
# [3] = molecular target: T2, Cannabinoid receptor 1 (Homo sapiens, UniProt P21554); experiment: SAR analysis of agonists of the Cannabinoid Receptor 1 using an Image-Based Assay - Set 3. [Related pubchem assays (depositor defined):AID1961, AID1965]; type: functional
# [4] = molecular target: T1, Cannabinoid receptor 2; experiment: SAR analysis of antagonists of the Cannabinoid Receptor 2 using an Image-Based Assay - Set 2. [Related pubchem assays (depositor defined):AID1961, AID1965]; type: functional
# [5] = molecular target: T3, G-protein coupled receptor 35 (Homo sapiens, UniProt Q9HC97); experiment: SAR analysis of Antagonists of the GPR35 Receptor using an Image-Based Assay - Set 4. [Related pubchem assays (depositor defined):[…]]; type: functional
# [6] = molecular target: T2, Cannabinoid receptor 1; experiment: SAR analysis of antagonists of the Cannabinoid Receptor 1 using an Image-Based Assay - Set 3. [Related pubchem assays (depositor defined):AID1961, AID1965]; type: functional
# [7] = molecular target: T3, G-protein coupled receptor 35; experiment: SAR analysis of Agonists of the GPR35 Receptor using an Image-Based Assay - Set 3. [Related pubchem assays (depositor defined):AID1961, AID1965]; type: functional
# [8] = molecular target: T4, Histone-lysine N-methyltransferase NSD2 (Homo sapiens, UniProt O96028); type: biochemical
# T4 sequence (O96028 whole entry): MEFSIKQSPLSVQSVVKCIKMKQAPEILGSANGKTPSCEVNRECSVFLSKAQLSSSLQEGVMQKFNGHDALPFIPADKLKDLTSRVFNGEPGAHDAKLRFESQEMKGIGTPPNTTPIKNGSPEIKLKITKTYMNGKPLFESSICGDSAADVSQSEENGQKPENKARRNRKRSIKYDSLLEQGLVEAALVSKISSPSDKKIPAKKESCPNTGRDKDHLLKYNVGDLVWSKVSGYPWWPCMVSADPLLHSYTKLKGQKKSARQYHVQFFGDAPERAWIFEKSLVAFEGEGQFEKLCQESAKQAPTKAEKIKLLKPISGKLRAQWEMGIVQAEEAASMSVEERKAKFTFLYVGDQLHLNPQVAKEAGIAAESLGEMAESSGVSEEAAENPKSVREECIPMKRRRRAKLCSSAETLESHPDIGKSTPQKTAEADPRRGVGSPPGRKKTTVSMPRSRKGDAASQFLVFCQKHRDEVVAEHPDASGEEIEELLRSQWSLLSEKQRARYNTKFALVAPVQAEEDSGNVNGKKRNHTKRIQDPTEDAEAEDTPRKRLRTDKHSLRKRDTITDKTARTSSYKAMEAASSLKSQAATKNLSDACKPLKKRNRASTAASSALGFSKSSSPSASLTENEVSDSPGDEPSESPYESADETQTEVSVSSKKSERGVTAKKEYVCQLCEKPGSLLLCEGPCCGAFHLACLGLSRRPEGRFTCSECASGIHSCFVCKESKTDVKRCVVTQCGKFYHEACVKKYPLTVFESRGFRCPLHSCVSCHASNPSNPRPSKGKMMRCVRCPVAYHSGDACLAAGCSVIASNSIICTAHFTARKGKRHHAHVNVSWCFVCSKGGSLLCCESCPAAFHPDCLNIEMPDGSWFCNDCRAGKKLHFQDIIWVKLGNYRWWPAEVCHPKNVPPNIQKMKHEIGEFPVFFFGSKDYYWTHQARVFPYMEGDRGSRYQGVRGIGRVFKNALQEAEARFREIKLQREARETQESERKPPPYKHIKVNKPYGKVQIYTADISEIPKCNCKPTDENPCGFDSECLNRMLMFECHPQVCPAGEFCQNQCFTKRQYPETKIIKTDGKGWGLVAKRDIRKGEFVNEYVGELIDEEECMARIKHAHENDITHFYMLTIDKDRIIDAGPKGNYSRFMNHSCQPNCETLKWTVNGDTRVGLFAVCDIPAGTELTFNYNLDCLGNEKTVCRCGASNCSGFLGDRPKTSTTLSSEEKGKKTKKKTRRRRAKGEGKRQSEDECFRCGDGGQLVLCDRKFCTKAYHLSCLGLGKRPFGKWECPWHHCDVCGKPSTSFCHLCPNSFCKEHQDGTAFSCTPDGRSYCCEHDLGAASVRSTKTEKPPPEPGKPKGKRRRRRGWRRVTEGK
# [9] = test system: HEK293; experiment: cells; type: functional, cell-based; conditions: Homo sapiens
# [10] = THP-1 cell cytotoxicity, dose response, cytotoxicity control for Vif-APOBEC3G degradation inhibitor project, THP-1 cells (AID 1117359); type: functional; conditions: Human immunodeficiency virus 1, THP-1
# [11] = molecular target: T5, Microphthalmia-associated transcription factor (Homo sapiens, UniProt O75030); experiment: TRPM1 promoter luciferase signal decrease, dose response, MITF inhibitor project, cell-based, SK-MEL-5, cherry-picked, set 3 (AID 493073); type: functional
# T5 sequence (O75030 whole entry): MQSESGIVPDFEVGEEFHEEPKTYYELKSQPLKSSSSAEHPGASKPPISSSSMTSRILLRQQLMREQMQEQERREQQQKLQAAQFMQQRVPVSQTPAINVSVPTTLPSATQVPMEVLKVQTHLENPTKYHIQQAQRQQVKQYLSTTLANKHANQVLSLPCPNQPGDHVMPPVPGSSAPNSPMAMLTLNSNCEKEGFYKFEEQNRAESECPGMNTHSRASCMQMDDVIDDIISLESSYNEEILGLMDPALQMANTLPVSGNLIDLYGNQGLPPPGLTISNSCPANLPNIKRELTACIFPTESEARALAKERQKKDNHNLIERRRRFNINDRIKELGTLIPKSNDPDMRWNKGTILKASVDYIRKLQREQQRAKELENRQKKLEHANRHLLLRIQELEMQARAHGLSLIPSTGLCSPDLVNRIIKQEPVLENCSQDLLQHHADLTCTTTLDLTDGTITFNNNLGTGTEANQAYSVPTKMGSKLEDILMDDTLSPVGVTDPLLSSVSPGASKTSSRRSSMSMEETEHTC
# [12] = test system: HEK293; experiment: NOD2 signaling inhibitors in MDP-stimulated cells, cell-based, uHTS, luminescence (AID 2001); type: functional; conditions: Homo sapiens
# [13] = molecular target: DNA (cytosine-5)-methyltransferase 1 (Homo sapiens, UniProt P26358); experiment: DNMT1 methyltransferase inhibitors, confirmation, biochemical, fluorescent molecular beacon (AID 602386); type: functional
# [14] = molecular target: Nucleotide-binding oligomerization domain-containing protein 2 (Homo sapiens, UniProt Q9HC29); experiment: NOD2 signaling inhibitors, cell-based, luminescence, uHTS, HEK293 (AID 1566); type: functional
# [15] = test system: HEK293; experiment: cells; type: functional, cell-based; conditions: Homo sapiens; remark: listed apart in the source
# [16] = test system: HEK293; experiment: NOD1 signaling inhibitors, primary screen, cell-based, luminescence, uHTS (AID 1578); type: functional; conditions: Homo sapiens
# [17] = test system: HEK293; experiment: cells; type: functional, cell-based; conditions: Homo sapiens; remark: listed apart in the source
# [18] = molecular target: Cytochrome P450 2C9 (Homo sapiens, UniProt P11712)
# [19] = molecular target: T6, Cytochrome P450 1A2 (Homo sapiens, UniProt P05177);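 further: PubChem cytochrome P450 panel assay, CYP1A2 panel member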
# T6 sequence (P05177 whole entry): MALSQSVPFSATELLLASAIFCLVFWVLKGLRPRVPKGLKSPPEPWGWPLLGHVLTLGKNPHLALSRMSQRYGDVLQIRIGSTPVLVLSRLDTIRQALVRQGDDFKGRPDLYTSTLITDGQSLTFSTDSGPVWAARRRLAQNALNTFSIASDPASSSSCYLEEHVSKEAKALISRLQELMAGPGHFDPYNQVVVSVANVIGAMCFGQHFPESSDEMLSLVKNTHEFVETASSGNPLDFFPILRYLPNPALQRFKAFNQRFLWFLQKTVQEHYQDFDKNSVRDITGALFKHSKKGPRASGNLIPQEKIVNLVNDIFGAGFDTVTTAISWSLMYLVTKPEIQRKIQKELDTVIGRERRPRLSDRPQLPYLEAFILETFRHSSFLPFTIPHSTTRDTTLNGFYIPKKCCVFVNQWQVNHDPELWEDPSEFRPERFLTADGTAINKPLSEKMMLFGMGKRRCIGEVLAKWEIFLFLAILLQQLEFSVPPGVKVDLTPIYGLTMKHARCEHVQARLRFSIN
# [20] = molecular target: Troponin, cardiac muscle (Homo sapiens, UniProt P19429+P45379+P63316); experiment: Fluorescence-based biochemical high throughput dose response assay for activators of the calcium sensitivity of cardiac Regulated Thin Filaments (RTF). [Related pubchem assays (depositor defined):AID493008, AID493018, AID504382, AID504383]; type: protein-complex assay
# [21] = molecular target: DNA damage-inducible transcript 3 protein (Mus musculus, UniProt P35639); type: functional, Cricetulus griseus
# [22] = molecular target: T7, Runt-related transcription factor 1/Core-binding factor subunit beta (Homo sapiens, UniProt Q01196+Q13951); experiment: inhibitors of RUNX1 Runt–CBFb-SMMHC binding, biochemical, TR-FRET (AID 1438); type: protein assay
# [23] = molecular target: T8, Voltage-gated N-type calcium channel alpha-1B subunit/Amyloid beta A4 precursor protein-binding family A member 1 (Homo sapiens, UniProt Q00975+Q02410); type: protein assay
# [24] = molecular target: T9, Heat shock factor protein 1 (Mus musculus, UniProt P38532); experiment: HSF1 potentiators in luciferase reporter cells, confirmation, cell-based, NIH3T3, luminescence, dose retest (AID 435004); type: functional;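 further: stress induced by proteasome inhibitor MG132 added 30 min after compound; luciferase reporter driven by HSF1 response element in NIH3T3 cells; actives raise luminescence as potentiators of the MG132 stress response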
# T9 sequence (P38532 whole entry): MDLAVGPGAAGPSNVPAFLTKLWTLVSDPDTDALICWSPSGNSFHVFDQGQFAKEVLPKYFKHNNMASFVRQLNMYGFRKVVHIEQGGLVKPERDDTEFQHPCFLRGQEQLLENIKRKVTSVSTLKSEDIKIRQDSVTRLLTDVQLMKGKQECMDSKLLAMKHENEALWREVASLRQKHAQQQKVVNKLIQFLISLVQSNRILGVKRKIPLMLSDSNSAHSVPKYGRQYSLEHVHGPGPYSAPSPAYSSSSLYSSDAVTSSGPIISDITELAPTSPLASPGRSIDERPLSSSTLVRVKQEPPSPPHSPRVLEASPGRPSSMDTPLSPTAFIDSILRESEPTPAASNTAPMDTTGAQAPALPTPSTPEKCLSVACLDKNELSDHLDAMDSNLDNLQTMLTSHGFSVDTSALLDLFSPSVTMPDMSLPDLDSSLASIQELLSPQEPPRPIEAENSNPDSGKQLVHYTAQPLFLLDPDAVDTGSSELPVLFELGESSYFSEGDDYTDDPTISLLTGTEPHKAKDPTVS
# [25] = molecular target: T8, Voltage-gated N-type calcium channel alpha-1B subunit/Amyloid beta A4 precursor protein-binding family A member 1; type: protein assay; remark: listed apart in the source
# [26] = molecular target: T7, Runt-related transcription factor 1/Core-binding factor subunit beta; experiment: inhibitors of RUNX1 Runt–CBFb-SMMHC binding, primary screen, biochemical, FRET, Cerulean-Runt, Venus-CBFb-SMMHC, uHTS (AID 1434); type: protein assay;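 further: partner is the CBFb-SMMHC leukemia fusion protein rather than wild-type CBFb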
# [27] = Luminescence Cell-Based Dose Retest to Confirm Inhibitors of Cancer Stem Cells. [Related pubchem assays (depositor defined):AID2717, AID2721]; type: functional; conditions: Homo sapiens
# [28] = molecular target: T10, Type-1 angiotensin II receptor (Homo sapiens, UniProt P30556); experiment: AT1 receptor agonists, dose response, selectivity assay for APJ receptor agonist project, cell-based, uHTS hits (AID 488865); type: functional;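 further: beta-arrestin recruitment to AT1 measured by enzyme fragment complementation luminescence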
# T10 sequence (P30556 whole entry): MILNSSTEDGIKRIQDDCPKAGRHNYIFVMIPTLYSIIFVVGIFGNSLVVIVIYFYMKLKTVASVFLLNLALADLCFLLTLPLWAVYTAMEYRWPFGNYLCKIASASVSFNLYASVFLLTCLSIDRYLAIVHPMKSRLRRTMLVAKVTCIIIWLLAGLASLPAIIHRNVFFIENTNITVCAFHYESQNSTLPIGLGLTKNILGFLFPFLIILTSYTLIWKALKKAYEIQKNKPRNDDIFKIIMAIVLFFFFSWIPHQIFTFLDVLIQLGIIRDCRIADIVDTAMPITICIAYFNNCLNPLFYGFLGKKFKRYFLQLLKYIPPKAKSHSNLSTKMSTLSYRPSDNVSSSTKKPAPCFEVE
smiles,measurement,setting,value
COc1ccc(S(=O)(=O)N2CCOCC2)cc1NC(=O)c1cc2c(s1)CCCCCC2,EC50,[1],17.7 µM (inactive)
same,EC50,[2],> 32 µM (inactive)
same,EC50,[3],> 32 µM (inactive)
same,IC50,[4],> 32 µM (inactive)
same,IC50,[5],> 32 µM (inactive)
same,IC50,[6],18.2 µM (inactive)
same,EC50,[7],> 32 µM (inactive)
CC(C)N1C(=O)/C(=C/C=C/c2ccco2)C(=O)N(Cc2ccco2)C1=O,AC50,[8],8.26 µM (active)
same,IC50,[9],18.8 µM (active)
same,CC50,[10],> 40 µM (active)
same,AC50,[11],9.97 µM (active)
same,IC50,[12],> 20 µM (inactive)
same,IC50,[13],8.31 µM (active)
same,EC50,[14],> 20 µM (inactive)
same,IC50,[15],> 20 µM (inactive)
same,EC50,[16],> 20 µM (inactive)
same,IC50,[17],> 20 µM (inactive)
Cc1cc2nc(C3CCCN(C(=O)NCc4ccccc4)C3)[nH]c2cc1C (stereo not drawn),AC50,[18],22.4 µM (inconclusive)
same,AC50,[19],25.1 µM (inconclusive)
same,EC50,[20],> 71.6 µM (inactive)
COc1ccc(/C=C/C(=O)NC(=S)NNC(=O)c2cccnc2)cc1,Absolute IC50 (CHOP),[21],10 µM
Cc1cc(C)cc(-n2c3nc4ccccc4nc3c3c(=O)n(Cc4ccco4)cnc32)c1,IC50,[22],34 µM (active)
same,IC50,[23],1.28 µM (active)
same,EC50,[24],> 260 µM (inactive)
same,IC50,[25],4.14 µM (active)
same,IC50,[26],> 100 µM (inactive)
CCCCCCc1cc2cc(-c3nnc(-c4cc(OC)c(OC)c(OC)c4)o3)c(=O)oc2cc1O,AC50,[27],7.35 µM (active)
same,EC50,[28],> 100 µM (inactive)
